Test results reported in patent US20250163074A1, “CDK Inhibitors And Their Use As Pharmaceuticals” (Prelude Therapeutics Incorporated, priority 2020, published 2025).

Key:
[1] = Brain-to-plasma ratio determination in Sprague-Dawley rats; assay type: in vivo; settings: rat, male Sprague-Dawley rats, four hours after a single oral dose (3, 4, 5, or 10 mg/kg)
Experimental: Example B: Brain-to-Plasma Ratio Determination in Sprague-Dawley Rats
The brain-to-plasma ratio (Kp) was determined in male Sprague-Dawley rats (7-9 weeks old) four hours after a single oral dose. Rats were acclimated and given free access to standard rodent chow and water throughout the entire study. Test articles were formulated as a solution at 0.3, 0.4, 0.5, or 1.0 mg/mL in a vehicle comprised of 10:15:75 (v:v:v) dimethylacetamide (DMA):Solutol HS15:water and delivered orally at a rate of 10 mL/kg to three rats to achieve final doses of 3, 4, 5, or 10 mg/kg, respectively. At 4 hours post-dose, blood samples were collected via jugular vein cannula into tubes containing K2EDTA as the anticoagulant and stored on ice. Blood samples were then centrifuged at 4° C. at 6000 rpm for 5 minutes, and the resulting plasma was placed into tubes and stored frozen at −80° C. until analysis. Whole brain samples were also collected at 4 hours post-dose. The weight of each brain was measured and recorded, and samples were immediately stored on dry ice. Brain samples were then transferred to storage at −80° C. until analysis.
Prior to analysis, brain samples were combined with water (4 mL/1 gram of brain) and homogenized. Prior to injection, plasma and brain homogenate samples and standards were prepared for analysis by precipitation with acetonitrile or 1:1 (v:v) methanol:acetonitrile. Samples were then thoroughly mixed, centrifuged at 4000 rpm for 15 minutes, and the resulting supernatant was transferred for analysis. Test article concentrations in plasma and brain homogenate were then determined by LC-MS/MS and quantified against calibration standards prepared to known concentrations in matched blank (analyte-free) biological matrix. The Kp was then determined by dividing the dilution-corrected brain concentration by the plasma concentration from each rat. A brain density of 1 gram/mL was assumed for all calculations.

CDK6/Cyclin D1 = CDK6/Cyclin D1 (Homo sapiens (Human), UniProt Q00534); assay: CDK6/CyclinD1 enzymatic activity assay (TR-FRET); assay type: biochemical; settings: CDK6/Cyclin D1 1 nM, ATP 250 μM, read-out: CDK6_D1 IC50
Chain of CDK6/Cyclin D1 (Q00534 whole entry): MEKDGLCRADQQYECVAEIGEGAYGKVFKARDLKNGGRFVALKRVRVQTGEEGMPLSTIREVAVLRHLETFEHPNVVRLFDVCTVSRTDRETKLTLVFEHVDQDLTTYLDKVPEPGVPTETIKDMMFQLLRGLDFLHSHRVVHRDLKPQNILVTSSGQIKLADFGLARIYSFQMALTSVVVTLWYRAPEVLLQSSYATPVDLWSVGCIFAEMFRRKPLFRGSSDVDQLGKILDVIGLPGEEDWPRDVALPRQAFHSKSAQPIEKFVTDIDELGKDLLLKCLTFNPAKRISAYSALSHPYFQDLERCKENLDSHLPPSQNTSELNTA
Chain of CDK6/Cyclin D1 (P24385 whole entry partner): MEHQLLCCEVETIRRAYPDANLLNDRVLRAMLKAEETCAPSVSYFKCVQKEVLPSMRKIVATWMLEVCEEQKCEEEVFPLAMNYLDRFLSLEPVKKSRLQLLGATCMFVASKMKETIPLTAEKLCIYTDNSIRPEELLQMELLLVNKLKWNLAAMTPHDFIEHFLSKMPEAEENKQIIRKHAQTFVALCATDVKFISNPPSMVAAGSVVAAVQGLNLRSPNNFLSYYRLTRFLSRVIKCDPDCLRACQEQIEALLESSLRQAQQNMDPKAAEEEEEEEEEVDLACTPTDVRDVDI
Outline: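 Insect-cell-expressed CDK6/Cyclin D1 (1 nM) phosphorylated ULight-4E-BP1 (100 nM) with 250 μM ATP in HEPES pH 7.4 buffer. After 20 min compound preincubation, reactions were started with 10 mM MgCl2 and run 60 min at 37 °C. EDTA-quenched samples were read by TR-FRET with Eu-anti-P-4E-BP1; IC50 from 9-dose 4-parameter fits.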

CDK4/Cyclin D1 = CDK4/Cyclin D1 (Homo sapiens (Human), UniProt P11802); assay: CDK4/CyclinD1 enzymatic activity assay (TR-FRET); assay type: biochemical; settings: CDK4/CyclinD1 1 nM, ATP 2 mM, read-out: CDK4_D1 IC50
Chain of CDK4/Cyclin D1 (P11802 whole entry): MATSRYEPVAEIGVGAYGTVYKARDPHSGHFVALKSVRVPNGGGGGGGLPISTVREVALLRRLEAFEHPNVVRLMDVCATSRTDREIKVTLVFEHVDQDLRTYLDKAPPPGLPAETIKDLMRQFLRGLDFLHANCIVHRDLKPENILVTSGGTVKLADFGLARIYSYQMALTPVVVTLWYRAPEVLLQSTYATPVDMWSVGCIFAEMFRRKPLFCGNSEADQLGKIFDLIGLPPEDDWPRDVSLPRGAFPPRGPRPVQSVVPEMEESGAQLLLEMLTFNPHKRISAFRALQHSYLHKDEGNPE
Chain of CDK4/Cyclin D1 (P24385 whole entry partner): as the sequence (P24385 whole entry partner) above
Outline: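 Insect-cell CDK4/Cyclin D1 (1 nM) with ULight-4E-BP1 (100 nM) and 2 mM ATP in HEPES pH 7.4 buffer, preincubated 20 min with compound (9-dose, 3-fold dilutions); 10 mM MgCl2 started the reaction, run 60 min at 37 °C. EDTA/Eu-anti-phospho-4E-BP1 TR-FRET detection; IC50 from 4-parameter Hill fit.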

[2] = system: MCF7 adenocarcinoma cell line; assay: Cell proliferation studies in MCF7 cells (ATP-Lite); assay type: cell-based; settings: Homo sapiens, 240 h, 10 days incubation, cell viability by ATP-Lite luminescence, read-out: PROLIFERATION_CTG_MCF7 IC50
Outline: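 MCF7 cells, seeded at 100 or 200 cells/well, were exposed for 10 days at 37 °C to a 9-point, 3-fold dilution series in quadruplicate, with media exchange and re-dosing on day 5. Viability was read by ATP-Lite luminescence, normalized to background and DMSO, and fitted for IC50.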

| SMILES | Kp at 4 h [1] | IC50 (CDK6/Cyclin D1) | IC50 (CDK4/Cyclin D1) | IC50 [2] |
| --- | --- | --- | --- | --- |
| CCN1CC2(C1)CN(c1ccc(Nc3ncc(F)c(-c4ccc5c(c4)C4(CCCC4)N(C)C5=O)n3)nc1)C2 [Example 78, 6′-(2-((5-(6-Ethyl-2,6-diazaspiro[3.3]heptan-2-yl)pyridin-2-yl)amino)-5-fluoropyrimidin-4-yl)-2′-methylspiro[cyclopentane-1,1′-isoindolin]-3′-one] | 1 to 3 | 20 to 200 nM | ≤ 20 nM | 20 to 200 nM |
| CCN1CC2(CC(c3ccc(Nc4ncc(F)c(-c5sc6c(c5C)C(=O)N(C)C65CC5)n4)nc3)C2)C1 [Example 81, 2′-(2-((5-(2-Ethyl-2-azaspiro[3.3]heptan-6-yl)pyridin-2-yl)amino)-5-fluoropyrimidin-4-yl)-3′,5′-dimethylspiro[cyclopropane-1,6′-thieno[2,3-c]pyrrol]-4′(5′H)-one] | < 1 | ≤ 20 nM | ≤ 20 nM | ≤ 20 nM |
